In ChEMBL document CHEMBL5584201, “Amphiphilic tribasic galactosamines potentiate rifampicin in Gram-negative bacteria at low Mg++/Ca++concentrations” (Bioorg Med Chem Lett, 2024):
Converted amounts (≈) assume the structure as drawn.

How the values were obtained:
Pseudomonas aeruginosa [1] = test: Antibacterial activity against Pseudomonas aeruginosa PAO1 in low salt containing media by Mueller-Hinton broth based assay; format: functional
Escherichia coli [2] = test: Antibacterial activity against Escherichia coli ATCC 25922 in low salt containing media by Mueller-Hinton broth based assay; format: functional
Escherichia coli [3] = test: Potentiation of rifampicin-induced antibacterial activity against Escherichia coli ATCC 25922 assessed as rifampicin MIC at 16 microg/ml in high concentration of Ca++ and Mg++ containing media by Mueller-Hinton broth based assay; format: functional; conditions: dose 16 µg/ml
Escherichia coli [4] = test: Potentiation of rifampicin-induced antibacterial activity against Escherichia coli ATCC 25922 assessed as fold change in rifampicin MIC at 2 to 8 microg/ml in high concentration of Ca++ and Mg++ containing media by Mueller-Hinton broth based assay; format: functional; conditions: dose 2-8 µg/ml
Acinetobacter baumannii [5] = test: Potentiation of rifampicin-induced antibacterial activity against Acinetobacter baumannii ATCC 17978 assessed as rifampicin MIC in low salt containing media by Mueller-Hinton broth based assay; format: functional
Acinetobacter baumannii [6] = test: Potentiation of rifampicin-induced antibacterial activity against multidrug resistant Acinetobacter baumannii LAC-4 assessed as fold change in rifampicin MIC at 1/4 MIC in low salt containing media by Mueller-Hinton broth based assay; format: functional
Acinetobacter baumannii [7] = test: Potentiation of rifampicin-induced antibacterial activity against multidrug resistant Acinetobacter baumannii clinical isolate 92247 assessed as fold change in rifampicin MIC at 1/4 MIC in low salt containing media by Mueller-Hinton broth based assay; format: functional
Pseudomonas aeruginosa [8] = test: Potentiation of rifampicin-induced antibacterial activity against Pseudomonas aeruginosa PAO1 assessed as rifampicin MIC at 2 to 8 microg/ml in high concentration of Ca++ and Mg++ containing media by Mueller-Hinton broth based assay; format: functional; conditions: dose 2-8 µg/ml
Escherichia coli [9] = test: Potentiation of rifampicin-induced antibacterial activity against Escherichia coli ATCC 25922 assessed as rifampicin MIC at 2 to 8 microg/ml in high concentration of Ca++ and Mg++ containing media by Mueller-Hinton broth based assay; format: functional; conditions: dose 2-8 µg/ml
Acinetobacter baumannii [10] = test: Potentiation of rifampicin-induced antibacterial activity against Acinetobacter baumannii 92247 assessed as fold change in rifampicin MIC at 2 to 8 microg/ml in high concentration of Ca++ and Mg++ containing media by Mueller-Hinton broth based assay; format: functional; conditions: dose 2-8 µg/ml
Pseudomonas aeruginosa [11] = test: Antibacterial activity against Pseudomonas aeruginosa PA262 in high concentration of Ca++ and Mg++ containing media by Mueller-Hinton broth based assay; format: functional
Pseudomonas aeruginosa [12] = test: Potentiation of rifampicin-induced antibacterial activity against Pseudomonas aeruginosa PA262 assessed as fold change in rifampicin MIC at 2 to 8 microg/ml in high concentration of Ca++ and Mg++ containing media by Mueller-Hinton broth based assay; format: functional; conditions: dose 2-8 µg/ml
Escherichia coli [13] = test: Antibacterial activity against Escherichia coli […] in high concentration of Ca++ and Mg++ containing media by Mueller-Hinton broth based assay; format: functional
Acinetobacter baumannii [14] = test: Potentiation of rifampicin-induced antibacterial activity against Acinetobacter baumannii 92247 assessed as fold change in rifampicin MIC at 16 microg/ml in high concentration of Ca++ and Mg++ containing media by Mueller-Hinton broth based assay; format: functional; conditions: dose 16 µg/ml
Acinetobacter baumannii [15] = test: Potentiation of rifampicin-induced antibacterial activity against multidrug resistant Acinetobacter baumannii clinical isolate 110193 assessed as fold change in rifampicin MIC at 1/4 MIC in low salt containing media by Mueller-Hinton broth based assay; format: functional
[16] = Cytotoxicity against human HepG2 cells assessed as cell viability at 9 uM relative to control; format: toxicity, cell-based; conditions: read-out: Activity
Escherichia coli [17] = test: Potentiation of rifampicin-induced antibacterial activity against Escherichia coli clinical isolate 94474 assessed as fold change in rifampicin MIC at 1/4 MIC in low salt containing media by Mueller-Hinton broth based assay; format: functional
Pseudomonas aeruginosa [18] = test: Potentiation of rifampicin-induced antibacterial activity against Pseudomonas aeruginosa PAO1 assessed as fold change in rifampicin MIC at 2 to 8 microg/ml in high concentration of Ca++ and Mg++ containing media by Mueller-Hinton broth based assay; format: functional; conditions: dose 2-8 µg/ml
Acinetobacter baumannii [19] = test: Antibacterial activity against Acinetobacter baumannii 92247 in high concentration of Ca++ and Mg++ containing media by Mueller-Hinton broth based assay; format: functional
Pseudomonas aeruginosa [20] = test: Antibacterial activity against Pseudomonas aeruginosa PAO1 in high concentration of Ca++ and Mg++ containing media by Mueller-Hinton broth based assay; format: functional
Acinetobacter baumannii [21] = test: Potentiation of rifampicin-induced antibacterial activity against multidrug resistant Acinetobacter baumannii AB027 assessed as fold change in rifampicin MIC at 1/4 MIC in low salt containing media by Mueller-Hinton broth based assay; format: functional
Acinetobacter baumannii [22] = test: Potentiation of rifampicin-induced antibacterial activity against Acinetobacter baumannii ATCC 17978 assessed as rifampicin MIC at 16 microg/ml in high concentration of Ca++ and Mg++ containing media by Mueller-Hinton broth based assay; format: functional; conditions: dose 16 µg/ml
Escherichia coli [23] = test: Potentiation of rifampicin-induced antibacterial activity against Escherichia coli […] assessed as fold change in rifampicin MIC at 2 to 8 microg/ml in high concentration of Ca++ and Mg++ containing media by Mueller-Hinton broth based assay; format: functional; conditions: dose 2-8 µg/ml
Acinetobacter baumannii [24] = test: Potentiation of rifampicin-induced antibacterial activity against Acinetobacter baumannii ATCC 17978 assessed as fold change in rifampicin MIC in low salt containing media by Mueller-Hinton broth based assay; format: functional
Acinetobacter baumannii [25] = test: Antibacterial activity against Acinetobacter baumannii ATCC 17978 in high concentration of Ca++ and Mg++ containing media by Mueller-Hinton broth based assay; format: functional
Acinetobacter baumannii [26] = test: Potentiation of rifampicin-induced antibacterial activity against multidrug resistant Acinetobacter baumannii AB031 assessed as fold change in rifampicin MIC at 1/4 MIC in low salt containing media by Mueller-Hinton broth based assay; format: functional
Escherichia coli [27] = test: Potentiation of rifampicin-induced antibacterial activity against Escherichia coli […] assessed as rifampicin MIC at 2 to 8 microg/ml in high concentration of Ca++ and Mg++ containing media by Mueller-Hinton broth based assay; format: functional; conditions: dose 2-8 µg/ml
Acinetobacter baumannii [28] = test: Potentiation of rifampicin-induced antibacterial activity against Acinetobacter baumannii 92247 assessed as rifampicin MIC at 2 to 8 microg/ml in high concentration of Ca++ and Mg++ containing media by Mueller-Hinton broth based assay; format: functional; conditions: dose 2-8 µg/ml
Acinetobacter baumannii [29] = test: Potentiation of rifampicin-induced antibacterial activity against Acinetobacter baumannii 92247 assessed as rifampicin MIC at 16 microg/ml in high concentration of Ca++ and Mg++ containing media by Mueller-Hinton broth based assay; format: functional; conditions: dose 16 µg/ml
Pseudomonas aeruginosa [30] = test: Potentiation of rifampicin-induced antibacterial activity against Pseudomonas aeruginosa PA262 assessed as rifampicin MIC at 2 to 8 microg/ml in high concentration of Ca++ and Mg++ containing media by Mueller-Hinton broth based assay; format: functional; conditions: dose 2-8 µg/ml
Pseudomonas aeruginosa [31] = test: Potentiation of rifampicin-induced antibacterial activity against Pseudomonas aeruginosa PAO1 assessed as fold change in rifampicin MIC in low salt containing media by Mueller-Hinton broth based assay; format: functional
Escherichia coli [32] = test: Antibacterial activity against Escherichia coli ATCC 25922 in high concentration of Ca++ and Mg++ containing media by Mueller-Hinton broth based assay; format: functional
Escherichia coli [33] = test: Potentiation of rifampicin-induced antibacterial activity against Escherichia coli clinical isolate 94393 assessed as fold change in rifampicin MIC at 1/4 MIC in low salt containing media by Mueller-Hinton broth based assay; format: functional

CCCCCCCCO[C@@H]1O[C@H](CN)[C@H](N)[C@H](OCc2ccc3ccccc3c2)[C@H]1N
MIC (Pseudomonas aeruginosa [1]): 32 µg/mL | MIC (Escherichia coli [2]): 8 µg/mL | MIC (Escherichia coli [3]): 16 µg/mL | fold change (FC) (Escherichia coli [4]): 1 | MIC (Acinetobacter baumannii [5]): 4 µg/mL | fold change (FC) (Acinetobacter baumannii [6]): 64 | fold change (FC) (Acinetobacter baumannii [7]): 64 | MIC (Pseudomonas aeruginosa [8]): 8 µg/mL | MIC (Escherichia coli [9]): 2 µg/mL | fold change (FC) (Acinetobacter baumannii [10]): 2 | MIC (Pseudomonas aeruginosa [11]): > 128 µg/mL | fold change (FC) (Pseudomonas aeruginosa [12]): 1 | MIC (Escherichia coli [13]): 64 µg/mL (≈ 149 µM) | fold change (FC) (Acinetobacter baumannii [14]): 32 | fold change (FC) (Acinetobacter baumannii [15]): 64 | viability at 9 µM [16]: 85% | fold change (FC) (Escherichia coli [17]): 64 | fold change (FC) (Pseudomonas aeruginosa [18]): 1 | MIC (Acinetobacter baumannii [19]): ≥ 64 µg/mL | MIC (Pseudomonas aeruginosa [20]): > 128 µg/mL | fold change (FC) (Acinetobacter baumannii [21]): 64 | MIC (Acinetobacter baumannii [22]): 16 µg/mL | fold change (FC) (Escherichia coli [23]): 1 | fold change (FC) (Acinetobacter baumannii [24]): 256 | MIC (Acinetobacter baumannii [25]): ≥ 64 µg/mL | fold change (FC) (Acinetobacter baumannii [26]): 64 | MIC (Escherichia coli [27]): 2 µg/mL | MIC (Acinetobacter baumannii [28]): 4 µg/mL | MIC (Acinetobacter baumannii [29]): 16 µg/mL | MIC (Pseudomonas aeruginosa [30]): 8 µg/mL | fold change (FC) (Pseudomonas aeruginosa [31]): 2 | MIC (Escherichia coli [32]): 64 µg/mL (≈ 149 µM) | fold change (FC) (Escherichia coli [33]): 64
